pEC50: −log10 of the molar value.
Target: T1, human ΔF508-CFTR (Homo sapiens, UniProt P13569, DEL508-508)
T1 construct: expressed in transfected cells
Assay: CFTR-YFP High Throughput Assay (YFP halide flux in FRT cells)
Type: cell-based
Conditions: FRT cells expressing human ΔF508-CFTR and YFP; forskolin stimulated
Method: Assays for Detecting and Measuring the Effect of Compounds on dF508-CFTR Channels CFRT-YFP High Throughput Assay:
The following protocol is designed to selectively screen small molecule compounds for F508del CFTR corrector activities in the HTS YFP flux assay. In this protocol, the cells are incubated with testing compounds for 24 hours, washed with PBS, stimulated with forskolin and a standard potentiator, and read on a 384-well HTS plate reader, such as the Hamamatsu FDDD-6000.
(§1) YFP fluorescence intensity is acquired at high speed before and after iodide buffer is injected to the assay cells. Iodide enters the cells via active CFTR channels in the plasma membrane, and quenches the YFP fluorescence. The rate of fluorescence quenching is proportionally related to the total CFTR activities in the cell membrane. dF508-CFTR corrector accelerates YFP quenching by increasing the number of CFTR molecules in the testing cell plasma membrane.
This method was initially developed for bench top plate readers (Galietta et al., 2001), and was adapted to the HTS format (Sui et al. Assay Drug Dev. Technol. 2010).
Fisher Rat Thyroid (FRT) cells stably expressing both human AF508-CFTR and a halide-sensitive yellow fluorescent protein (YFP—H148Q/1152L 25, 22) (Galietta et al., Am. J. Physiol Cell Physiol 281(5), C1734, 2001) were cultured on plastic surface in Coon's modified Ham's F12 medium supplemented with FBS 10%, L-glutamine 2 mM, penicillin 100 U/mL, and streptomycin 100 μg/mL. G418 (0.75-1.0 mg/mL) and zeocin (3.2 ug/mL) were used for selection of FRT cells expressing ΔF508-CFTR and YFP. For primary screening, FRT cells were plated into 384-well black wall, transparent bottom microtiter plates (Costar; Corning Inc.) at a cell density of 20,000-40,000 per well. Test compound was applied to the cells at varying concentrations ranging from […] in either a 2-fold or 3-fold dilution series. Cells were incubated in a cell culture incubator at 37° C. with 5% CO2 for 24-26 h. Assay plates were washed with DPBS media (Thermo, cat# SH30028.02) to remove unbound cells and compound. Stimulation media (25 μL) containing 20 μM Forskolin & 30 μM P3 [6-(Ethyl-phenyl-sulfonyl)-4-oxo-1,4-dihydro-quinoline-3-carboxylic acid 2-methoxy-benzylamide] in Hams F-12 coon's modified media was added to the plate wells and incubated at room temperature for 60-120 min. 25 μL of HEPES-PBS-I buffer (10 mM HEPES, 1 mM MgCl2, 3 mM KCl, 1 mM CaCl2, 150 mM NaI) was then added and fluorescence quench curves (Excitation 500 nm/Emission 540 nm; exposure 136 ms) were immediately recorded on an FDSS-6000 plate reader (Hamamatsu). Quench rates were derived from least squares fitting of the data as described by Sui et al., (2010).
The following protocol is designed to selectively screen small molecule compounds for F508del CFTR potentiator activities in the HTS YFP flux assay. In this protocol, the cells are incubated at 27 C for 24 hours with homogeneously boosted dF508-CFTR expression in the cell membrane by the low temperature, washed with PBS, stimulated with forskolin, and read on a 384-well HTS plate reader, such as the Hamamatsu FDDD-6000.
as §1, with “dF508del-CFTR potentiators accelerate” for “dF508-CFTR corrector accelerates”, “increasing” for “increasing the number of”, “activities” for “molecules”
Fisher Rat Thyroid (FRT) cells stably expressing both human ΔF508-CFTR and a halide-sensitive yellow fluorescent protein (YFP-H148Q/I152L 25, 22) (Galietta et al., Am. J. Physiol Cell Physiol 281(5), C1734, 2001) were cultured on plastic surface in Coon's modified Ham's F12 medium supplemented with FBS 10%, L-glutamine 2 mM, penicillin 100 U/mL, and streptomycin 100 μg/mL. […]

T1 sequence (P13569 with tags, fused parts or gaps DEL508-508): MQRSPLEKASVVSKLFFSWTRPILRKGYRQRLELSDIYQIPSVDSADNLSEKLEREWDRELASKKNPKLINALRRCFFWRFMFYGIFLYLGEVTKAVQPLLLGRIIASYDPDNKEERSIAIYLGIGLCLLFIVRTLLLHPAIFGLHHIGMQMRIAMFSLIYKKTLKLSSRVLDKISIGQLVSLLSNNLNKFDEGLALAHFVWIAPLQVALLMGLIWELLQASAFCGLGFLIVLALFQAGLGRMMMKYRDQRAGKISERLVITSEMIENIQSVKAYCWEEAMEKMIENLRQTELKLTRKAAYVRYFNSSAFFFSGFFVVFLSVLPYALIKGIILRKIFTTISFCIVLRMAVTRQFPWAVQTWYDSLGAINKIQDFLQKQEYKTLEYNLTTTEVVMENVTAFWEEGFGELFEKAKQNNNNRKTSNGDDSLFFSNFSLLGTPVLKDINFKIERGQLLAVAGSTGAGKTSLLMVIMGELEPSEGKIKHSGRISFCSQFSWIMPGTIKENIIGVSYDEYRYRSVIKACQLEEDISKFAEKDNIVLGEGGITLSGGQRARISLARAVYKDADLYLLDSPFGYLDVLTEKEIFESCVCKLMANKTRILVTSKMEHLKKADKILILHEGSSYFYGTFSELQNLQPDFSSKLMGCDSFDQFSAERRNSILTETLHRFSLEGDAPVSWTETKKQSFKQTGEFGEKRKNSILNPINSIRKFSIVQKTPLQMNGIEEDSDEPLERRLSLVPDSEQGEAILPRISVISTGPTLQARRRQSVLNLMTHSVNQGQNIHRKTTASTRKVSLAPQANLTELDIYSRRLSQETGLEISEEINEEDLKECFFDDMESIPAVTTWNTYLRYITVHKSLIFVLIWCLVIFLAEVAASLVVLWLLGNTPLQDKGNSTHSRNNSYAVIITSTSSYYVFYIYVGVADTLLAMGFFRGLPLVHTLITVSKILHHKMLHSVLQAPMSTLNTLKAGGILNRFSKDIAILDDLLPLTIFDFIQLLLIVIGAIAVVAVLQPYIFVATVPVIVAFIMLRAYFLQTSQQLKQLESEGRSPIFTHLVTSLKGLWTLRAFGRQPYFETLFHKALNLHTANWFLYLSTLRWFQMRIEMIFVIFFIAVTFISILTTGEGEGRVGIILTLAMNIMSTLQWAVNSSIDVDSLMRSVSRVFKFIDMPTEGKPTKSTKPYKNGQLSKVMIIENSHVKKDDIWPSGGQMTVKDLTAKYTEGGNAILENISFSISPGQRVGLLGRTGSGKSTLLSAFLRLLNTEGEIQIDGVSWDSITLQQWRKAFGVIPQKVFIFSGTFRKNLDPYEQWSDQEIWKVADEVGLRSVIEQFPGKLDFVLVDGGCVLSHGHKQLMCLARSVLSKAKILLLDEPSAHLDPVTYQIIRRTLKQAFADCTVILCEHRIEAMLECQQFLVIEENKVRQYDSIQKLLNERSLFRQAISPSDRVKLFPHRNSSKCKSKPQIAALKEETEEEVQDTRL

Compound | pEC50
CCN(C(=O)Cn1nc(Cc2cccnc2)c2c(OC3CCCCC3)cccc2c1=O)c1ccc2c(c1)OC(F)(F)O2 [Example 60, 2-(5-(cyclohexyloxy)-1-oxo-4-(pyridin-3-ylmethyl)phthalazin-2(1H)-yl)-N-(2,2-difluorobenzo[d][1,3]dioxol-5-yl)-N-ethylacetamide] | > 5.00
CCN(C(=O)Cn1nc(Cc2cccnc2)c2cccc(OCCOC)c2c1=O)c1ccc2c(c1)OC(F)(F)O2 [Example 61, N-(2,2-difluorobenzo[d][1,3]dioxol-5-yl)-N-ethyl-2-(8-(2-methoxyethoxy)-1-oxo-4-(pyridin-3-ylmethyl)phthalazin-2(1H)-yl)acetamide] | > 5.00
CCN(C(=O)Cn1nc(Cc2cccnc2)c2c(OCCOC)cccc2c1=O)c1ccc2c(c1)OC(F)(F)O2 [Example 62, N-(2,2-difluorobenzo[d][1,3]dioxol-5-yl)-N-ethyl-2-(5-(2-methoxyethoxy)-1-oxo-4-(pyridin-3-ylmethyl)phthalazin-2(1H)-yl)acetamide] | > 5.00
COc1ccc2c(-c3ccc(S(N)(=O)=O)cc3)nn(CC(=O)N(C)c3ccc4c(c3)OC(F)(F)O4)c(=O)c2c1 [Example 64, N-(2,2-difluorobenzo[d][1,3]dioxol-5-yl)-2-(7-methoxy-1-oxo-4-(4-sulfamoylphenyl)phthalazin-2(1H)-yl)-N-methylacetamide] | > 5.00
COc1ccc2c(-c3ccc(S(N)(=O)=O)cc3)nn(CC(=O)N(c3ccc4c(c3)OC(F)(F)O4)C3CC3)c(=O)c2c1 [Example 71, N-cyclopropyl-N-(2,2-difluorobenzo[d][1,3]dioxol-5-yl)-2-(7-methoxy-1-oxo-4-(4-sulfamoylphenyl)phthalazin-2(1H)-yl)acetamide] | > 5.00
COc1ccc2c(-c3ccc(C(N)=O)cc3)nn(CC(=O)N(C)c3ccc4c(c3)OC(F)(F)O4)c(=O)c2c1 [Example 76, 4-(3-(2-((2,2-difluorobenzo[d][1,3]dioxol-5-yl)(methyl)amino)-2-oxoethyl)-6-methoxy-4-oxo-3,4-dihydrophthalazin-1-yl)benzamide] | > 5.00
CCN(C(=O)Cn1nc(C(=O)Nc2cc(Cl)ccc2C(=O)O)c2ccccc2c1=O)c1ccc2c(c1)OC(F)(F)O2 [Example 79, 4-chloro-2-(3-(2-((2,2-difluorobenzo[d][1,3]dioxol-5-yl)(ethyl)amino)-2-oxoethyl)-4-oxo-3,4-dihydrophthalazine-1-carboxamido)benzoic acid] | > 5.00
CCN(C(=O)Cn1nc(C(=O)Nc2ccccn2)c2ccccc2c1=O)c1ccc2c(c1)OC(F)(F)O2 [Example 80, 3-(2-((2,2-difluorobenzo[d][1,3]dioxol-5-yl)(ethyl)amino)-2-oxoethyl)-4-oxo-N-(pyridin-2-yl)-3,4-dihydrophthalazine-1-carboxamide] | < 4.70
CCN(C(=O)Cn1nc(C(=O)N(C)c2ccccn2)c2ccccc2c1=O)c1ccc2c(c1)OC(F)(F)O2 [Example 81, 3-(2-((2,2-difluorobenzo[d][1,3]dioxol-5-yl)(ethyl)amino)-2-oxoethyl)-N-methyl-4-oxo-N-(pyridin-2-yl)-3,4-dihydrophthalazine-1-carboxamide] | 4.70 to 5.00
CCc1ccc(N(CC)C(=O)Cn2nc(C(=O)Nc3cc(Cl)ccc3C(=O)OC)c3ccccc3c2=O)cc1 [Example 84, methyl 4-chloro-2-(3-(2-(ethyl(4-ethylphenyl)amino)-2-oxoethyl)-4-oxo-3,4-dihydrophthalazine-1-carboxamido)benzoate] | > 5.00

More lines, now with the values ahead:

pEC50 | Compound
> 5.00 | COc1ccc2c(-c3cccc(C#N)c3)nn(CC(=O)N(C)c3ccc4c(c3)OC(F)(F)O4)c(=O)c2c1 [Example 63, 2-(4-(3-cyanophenyl)-7-methoxy-1-oxophthalazin-2(1H)-yl)-N-(2,2-difluorobenzo[d][1,3]dioxol-5-yl)-N-methylacetamide]
> 5.00 | CCN(C(=O)Cn1nc(-c2ccc(S(N)(=O)=O)cc2)c2ccc(OC)cc2c1=O)c1ccc2c(c1)OC(F)(F)O2 [Example 65, N-(2,2-difluorobenzo[d][1,3]dioxol-5-yl)-N-ethyl-2-(7-methoxy-1-oxo-4-(4-sulfamoylphenyl)phthalazin-2(1H)-yl)acetamide]
< 4.70 | CCN(C(=O)Cn1nc(-c2ccc(S(N)(=O)=O)cc2)c2ccc(OC)cc2c1=O)c1ccc(OC(F)F)cc1 [Example 66, N-(4-(difluoromethoxy)phenyl)-N-ethyl-2-(7-methoxy-1-oxo-4-(4-sulfamoylphenyl)phthalazin-2(1H)-yl)acetamide]
> 5.00 | CCN(C(=O)Cn1nc(-c2cccc(C#N)c2)c2ccc(OC)cc2c1=O)c1ccc(OC(F)F)cc1 [Example 67, 2-(4-(3-cyanophenyl)-7-methoxy-1-oxophthalazin-2(1H)-yl)-N-(4-(difluoromethoxy)phenyl)-N-ethylacetamide]
> 5.00 | COc1ccc2c(-c3ccc(S(N)(=O)=O)cc3)nn(CC(=O)N(c3ccc4c(c3)OC(F)(F)O4)C(C)C)c(=O)c2c1 [Example 69, N-(2,2-difluorobenzo[d][1,3]dioxol-5-yl)-N-isopropyl-2-(7-methoxy-1-oxo-4-(4-sulfamoyl-phenyl)phthalazin-2(1H)-yl)acetamide]
> 5.00 | COc1ccc2c(-c3cccc(C#N)c3)nn(CC(=O)N(c3ccc4c(c3)OC(F)(F)O4)C(C)C)c(=O)c2c1 [Example 70, 2-(4-(3-cyanophenyl)-7-methoxy-1-oxophthalazin-2(1H)-yl)-N-(2,2-difluorobenzo[d][1,3]dioxol-5-yl)-N-isopropylacetamide]
> 5.00 | COc1ccc2c(-c3cccc(C#N)c3)nn(CC(=O)N(c3ccc4c(c3)OC(F)(F)O4)C3CC3)c(=O)c2c1 [Example 72, 2-(4-(3-cyanophenyl)-7-methoxy-1-oxophthalazin-2(1H)-yl)-N-cyclopropyl-N-(2,2-difluorobenzo[d][1,3]dioxol-5-yl)acetamide]
> 5.00 | CCN(C(=O)Cn1nc(-c2ccc(C(N)=O)cc2)c2ccc(OC)cc2c1=O)c1ccc2c(c1)OC(F)(F)O2 [Example 75, 4-(3-(2-((2,2-difluorobenzo[d][1,3]dioxol-5-yl)(ethyl)amino)-2-oxoethyl)-6-methoxy-4-oxo-3,4-dihydrophthalazin-1-yl)benzamide]
> 5.00 | CCN(C(=O)Cn1nc(-c2ccc(C(N)=O)cc2)c2ccc(OC)cc2c1=O)c1ccc2nc(C)oc2c1 [Example 77, 4-(3-(2-(ethyl(2-methylbenzo[d]oxazol-6-yl)amino)-2-oxoethyl)-6-methoxy-4-oxo-3,4-dihydrophthalazin-1-yl)benzamide]
4.70 to 5.00 | CCN(C(=O)Cn1nc(C(=O)Nc2ccccc2C#N)c2ccccc2c1=O)c1ccc2c(c1)OC(F)(F)O2 [Example 78, N-(2-cyanophenyl)-3-(2-((2,2-difluorobenzo[d][1,3]dioxol-5-yl)(ethyl)amino)-2-oxoethyl)-4-oxo-3,4-dihydrophthalazine-1-carboxamide]
> 5.00 | CCc1ccc(N(CC)C(=O)Cn2nc(C(=O)Nc3cc(Cl)ccc3C#N)c3ccccc3c2=O)cc1 [Example 82, N-(5-chloro-2-cyanophenyl)-3-(2-(ethyl(4-ethylphenyl)amino)-2-oxoethyl)-4-oxo-3,4-dihydrophthalazine-1-carboxamide]
> 5.00 | CCN(C(=O)Cn1nc(C(=O)N(CC)c2ccccc2C#N)c2ccccc2c1=O)c1ccc2c(c1)OC(F)(F)O2 [Example 83, N-(2-cyanophenyl)-3-(2-((2,2-difluoro-benzo[d][1,3]dioxol-5-yl)(ethyl)amino)-2-oxoethyl)-N-ethyl-4-oxo-3,4-dihydro-phthalazine-1-carboxamide]
